In the assay the target is T1, hAhR (Homo sapiens, UniProt P35869).
T1 construct: Stably integrated DRE-luciferase cell lines were generated by transducing the both cell lines with Cignal XRE luciferase reporter; endogenous in cells; host or cells: HEPG2 DRE-Luc cells (only the XRE luciferase reporter was transduced)
T1 sequence (P35869 11-848): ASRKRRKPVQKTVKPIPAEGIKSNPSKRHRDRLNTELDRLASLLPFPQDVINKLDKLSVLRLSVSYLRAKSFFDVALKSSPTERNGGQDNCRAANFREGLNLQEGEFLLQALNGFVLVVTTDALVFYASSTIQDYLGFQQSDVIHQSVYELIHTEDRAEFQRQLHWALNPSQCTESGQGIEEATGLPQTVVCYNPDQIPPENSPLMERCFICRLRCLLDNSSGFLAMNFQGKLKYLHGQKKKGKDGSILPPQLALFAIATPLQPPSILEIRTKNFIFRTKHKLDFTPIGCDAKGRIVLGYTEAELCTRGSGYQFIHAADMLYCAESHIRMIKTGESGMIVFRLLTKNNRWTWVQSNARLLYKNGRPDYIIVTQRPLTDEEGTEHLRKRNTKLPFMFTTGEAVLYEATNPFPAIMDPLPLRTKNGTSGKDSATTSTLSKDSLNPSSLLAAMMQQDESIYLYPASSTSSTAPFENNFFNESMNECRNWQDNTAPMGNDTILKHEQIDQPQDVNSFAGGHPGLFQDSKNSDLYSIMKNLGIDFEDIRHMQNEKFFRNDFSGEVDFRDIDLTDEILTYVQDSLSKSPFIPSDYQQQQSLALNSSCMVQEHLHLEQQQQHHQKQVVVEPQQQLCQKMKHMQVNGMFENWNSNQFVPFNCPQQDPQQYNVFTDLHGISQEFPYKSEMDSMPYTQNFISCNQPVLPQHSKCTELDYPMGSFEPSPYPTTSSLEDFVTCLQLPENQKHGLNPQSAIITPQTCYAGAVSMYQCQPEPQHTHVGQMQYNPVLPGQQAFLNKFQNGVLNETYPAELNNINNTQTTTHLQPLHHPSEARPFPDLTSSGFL
Nature of the assay: DRE-luciferase transcriptional reporter assay in HEPG2 DRE-Luc cells, TCDD-induced (antagonist mode). Type of assay: cell-based. The note with it: relative IC50, 3 nM TCDD, 24-hour incubation, firefly luciferase readout. On the procedure:
HEPG2 and HEPA1C1C7 cells were maintained in MEM and αMEM without nucleosides supplemented with 10% heat inactivated FBS respectively. Stably integrated DRE-luciferase cell lines were generated by transducing the both cell lines with Cignal XRE luciferase reporter (Qiagen) lentiviral particles according to the manufacturer protocol. For both cell lines stably integrated reporter cell lines were selected for the presence of 2 μg/mL puromycin. Following selection of stably integrated cell line pools, clonal cell lines were isolated by limiting dilution in 96-well plates. Transcriptional assays were performed by seeding 100 μL of cells at a density of 250,000 or 100,000 cells/mL, for HEPG2 and HEPA1C1C7 DRE-Luc cells respectively, into 96-well cell culture plates in OptiMEM supplemented with 0.5% heat inactivated FBS and allowed to attach overnight. For modulator assays, the compounds were added in a semi-log dose response using a D300e Digital Dispenser (Tecan) followed normalization with vehicle (DMSO). Immediately following compound addition 10 μL of 2,3,7,8-Tetrachlorodibenzo-p-dioxin (TCDD) was added to the cells to a final concentration of 3 nM or 0.3 nM for the HEPG2 and HEPA1C1C7 DRE-Luc cells respectively. Following 24-hour incubation, the medium was removed and the cells were lysed in 25 μL of Reporter Lysis Buffer (Promega). Firefly luciferase activity was measured immediately following the addition of 50 μL Luciferase Assay Reagent (Promega). The percent maximal activity for each point was determined using the following equation: (RLUsample−RLUvehicle−TCDD)/(RLUvehicle+TCDD RLUvehicle−TCDD)*100. The relative IC50, defined as the compound concentration required to reduce the TCDD induced response between the top and bottom plateau of each individual dose response curve by half, for each compound was determined using Prism 7 (GraphPad Software).
Broadly, the IC50 is the concentration at which inhibition is half-maximal. Low values mean inhibition by little substance, high ones a need for much substance. `Cc1cc(-c2ncc3cc(C(F)(F)F)ccc3n2)ccc1N1CCn2nc(N)c(C)c2C1=O` [Example 113, 2-amino-3-methyl-5-(2-methyl-4-(6-(trifluoromethyl)quinazolin-2-yl)phenyl)-6,7-dihydropyrazolo[1,5-a]pyrazin-4 (5H)-one] yielded an IC50 below 0.2 µM.

Regarding `Cc1cc(-c2ncc3cc(C(F)(F)F)ccc3n2)ccc1N1CC(CO)n2ncc(C)c2C1=O` (centres unmarked) [Example 114, 7-(hydroxymethyl)-3-methyl-5-(2-methyl-4-(6-(trifluoromethyl)quinazolin-2-yl)phenyl)-6,7-dihydropyrazolo[1,5-a]pyrazin-4 (5H)-one], the IC50 is below 0.2 µM.

Consider `Cc1cc(-c2ncc3nc(C(F)(F)F)ccc3n2)ccc1N1CCOc2cnn(C)c2C1=O` [compound 001, 1-methyl-7-(2-methyl-4-(6-(trifluoromethyl)pyrido[3,2-d]pyrimidin-2-yl)phenyl)-6,7-dihydro-1H-pyrazolo[3,4-f][1,4]oxazepin-8 (5H)-one], for which the IC50 is below 0.2 µM.

In turn, `Cc1cc(-c2ncc3cc(C(F)(F)F)ccc3n2)ccc1N1CCn2ncc(C)c2C1=O` [compound 002, 3-methyl-5-(2-methyl-4-(6-(trifluoromethyl)quinazolin-2-yl)phenyl)-6,7-dihydropyrazolo[1,5-a]pyrazin-4 (5H)-one] had a 50% inhibitory concentration (IC50) below 0.2 µM.

Take `Cc1cc(N2CCn3ncc(C)c3C2=O)c(C)cc1-c1ncc2cc(C(F)(F)F)ccc2n1` [compound 003, 5-(2,5-dimethyl-4-(6-(trifluoromethyl)quinazolin-2-yl)phenyl)-3-methyl-6,7-dihydropyrazolo[1,5-a]pyrazin-4 (5H)-one]: the IC50 was in the range of 0.2 to 0.5 µM.

Regarding `Cc1cc(-c2ncc3nc(C(F)(F)F)ccc3n2)ccc1N1CCc2cnn(C)c2C1=O` [compound 004, 1-methyl-6-(2-methyl-4-(6-(trifluoromethyl)pyrido[3,2-d]pyrimidin-2-yl)phenyl)-1,4,5,6-tetrahydro-7H-pyrazolo[3,4-c]pyridin-7-one], the IC50 is below 0.2 µM.

The molecule `Cc1cc(N2CCOc3cnn(C)c3C2=O)c(C)cc1-c1ccc2nc(C(F)(F)F)cc(C)c2n1` [compound 005, 7-(2,5-dimethyl-4-(8-methyl-6-(trifluoromethyl)-1,5-naphthyridin-2-yl)phenyl)-1-methyl-6,7-dihydro-1H-pyrazolo[3,4-f][1,4]oxazepin-8 (5H)-one] yielded an IC50 below 0.2 µM.

Molecule `Cc1cc(-c2ccc3nc(C(F)(F)F)ccc3n2)ccc1N1CCn2ncc(C)c2C1=O` [compound 006, 3-methyl-5-(2-methyl-4-(6-(trifluoromethyl)-1,5-naphthyridin-2-yl)phenyl)-6,7-dihydropyrazolo[1,5-a]pyrazin-4 (5H)-one] came in with an IC50 below 0.2 µM.

`Cc1cc(N2CCn3ncc(C)c3C2=O)c(F)cc1-c1ccc2nc(C(F)(F)F)ccc2n1` [compound 007, 5-(2-fluoro-5-methyl-4-(6-(trifluoromethyl)-1,5-naphthyridin-2-yl)phenyl)-3-methyl-6,7-dihydropyrazolo[1,5-a]pyrazin-4 (5H)-one] came in with an IC50 below 0.2 µM.

Consider `Cc1cc(-c2ccc3cc(C(F)(F)F)ccc3n2)ccc1N1CCn2ncc(C)c2C1=O` [compound 008, 3-methyl-5-(2-methyl-4-(6-(trifluoromethyl)quinolin-2-yl)phenyl)-6,7-dihydropyrazolo-[1,5-a]pyrazin-4 (5H)-one], for which the IC50 is below 0.2 µM.

Molecule `Cc1cc(-c2ncc3cc(C(F)(F)F)cc(C)c3n2)ccc1N1CCn2ncc(C)c2C1=O` [compound 009, 3-methyl-5-(2-methyl-4-(8-methyl-6-(trifluoromethyl)quinazolin-2-yl)phenyl)-6,7-dihydropyrazolo[1,5-a]pyrazin-4 (5H)-one] came in with an IC50 below 0.2 µM.

For `Cc1cc(N2CCc3cnn(C)c3C2=O)c(C)cc1-c1ccc2nc(C(F)(F)F)ccc2n1` [compound 010, 6-(2,5-dimethyl-4-(6-(trifluoromethyl)-1,5-naphthyridin-2-yl)phenyl)-1-methyl-1,4,5,6-tetrahydro-7H-pyrazolo[3,4-c]pyridin-7-one], the IC50 lay within 1 to 10 µM.

For `Cc1cc(N2CCc3cnn(C)c3C2=O)c(F)cc1-c1ccc2nc(C(F)(F)F)ccc2n1` [compound 011, 6-(2-fluoro-5-methyl-4-(6-(trifluoromethyl)-1,5-naphthyridin-2-yl)phenyl)-1-methyl-1,4,5,6-tetrahydro-7H-pyrazolo[3,4-c]pyridin-7-one], the IC50 was below 0.2 µM.

On to `Cc1cc(N2CCOc3cnn(C)c3C2=O)c(F)cc1-c1ccc2nc(C(F)(F)F)ccc2n1` [compound 012, 7-(2-fluoro-5-methyl-4-(6-(trifluoromethyl)-1,5-naphthyridin-2-yl)phenyl)-1-methyl-6,7-dihydro-1H-pyrazolo[3,4-f][1,4]oxazepin-8 (5H)-one], for which the IC50 was in the range of 0.5 to 1 µM.

`Cc1cnn2c1C(=O)N(c1ccc(-c3ncc4cc(C(F)(F)F)ccc4n3)cc1F)CC2` [compound 013, 5-(2-fluoro-4-(6-(trifluoromethyl)quinazolin-2-yl)phenyl)-3-methyl-6,7-dihydropyrazolo[1,5-a]pyrazin-4 (5H)-one] had a half-inhibitory concentration (IC50) below 0.2 µM.

Consider `Cc1cc(-c2ncc3cc(C(F)(F)F)ccc3n2)ccc1N1Cc2cnn(C)c2C1=O` [compound 014, 1-methyl-5-(2-methyl-4-(6-(trifluoromethyl)quinazolin-2-yl)phenyl)-4,5-dihydropyrrolo[3,4-c]pyrazol-6 (1H)-one], for which the IC50 is below 0.2 µM.

In turn, `Cc1cc(-c2ncc3cc(C(F)(F)F)ccc3n2)ccc1N1CCc2cnn(C)c2C1=O` [compound 015, 1-methyl-6-(2-methyl-4-(6-(trifluoromethyl)quinazolin-2-yl)phenyl)-1,4,5,6-tetrahydro-7H-pyrazolo[3,4-c]pyridin-7-one] came in with an IC50 below 0.2 µM.

`Cc1cc(-c2ncc3nc(C(F)(F)F)ccc3n2)ccc1N1CCn2ncc(C)c2C1=O` [compound 016, 3-methyl-5-(2-methyl-4-(6-(trifluoromethyl)pyrido[3,2-d]pyrimidin-2-yl)phenyl)-6,7-dihydropyrazolo[1,5-a]pyrazin-4 (5H)-one] gave an IC50 below 0.2 µM.

On to `Cc1cc(-c2ccc3nc(C(F)(F)F)cc(C)c3n2)ccc1N1CCn2ncc(C)c2C1=O` [compound 017, 3-methyl-5-(2-methyl-4-(8-methyl-6-(trifluoromethyl)-1,5-naphthyridin-2-yl)phenyl)-6,7-dihydropyrazolo[1,5-a]pyrazin-4 (5H)-one], for which the IC50 is below 0.2 µM.

For the molecule `Cc1cc(N2CCn3ncc(C)c3C2=O)c(C)cc1-c1ccc2nc(C(F)(F)F)ccc2n1` [compound 018, 5-(2,5-dimethyl-4-(6-(trifluoromethyl)-1,5-naphthyridin-2-yl)phenyl)-3-methyl-6,7-dihydropyrazolo[1,5-a]pyrazin-4 (5H)-one], the IC50 fell in the range of 0.2 to 0.5 µM.

`Cc1cc(N2CCn3ncc(C)c3C2=O)c(C)cc1-c1ncc2nc(C(F)(F)F)ccc2n1` [compound 019, 5-(2,5-dimethyl-4-(6-(trifluoromethyl)pyrido[3,2-d]pyrimidin-2-yl)phenyl)-3-methyl-6,7-dihydropyrazolo[1,5-a]pyrazin-4 (5H)-one] returned an IC50 below 0.2 µM.

For `Cc1cc(N2CCn3ncc(C)c3C2=O)c(C)cc1-c1ccc2nc(C(F)(F)F)cc(C)c2n1` [compound 020, 5-(2,5-dimethyl-4-(8-methyl-6-(trifluoromethyl)-1,5-naphthyridin-2-yl)phenyl)-3-methyl-6,7-dihydropyrazolo[1,5-a]pyrazin-4 (5H)-one], the IC50 was below 0.2 µM.

For `Cc1cc(N2CCn3ncc(C)c3C2=O)c(F)cc1-c1ncc2nc(C(F)(F)F)ccc2n1` [compound 021, 5-(2-fluoro-5-methyl-4-(6-(trifluoromethyl)pyrido[3,2-d]pyrimidin-2-yl)phenyl)-3-methyl-6,7-dihydropyrazolo[1,5-a]pyrazin-4 (5H)-one], the IC50 was below 0.2 µM.
